Some targets named below: CSK (Homo sapiens, UniProt P41240); FGFR3 (Homo sapiens, UniProt P22607); HUNK (Homo sapiens, UniProt P57058); PAK1 (Homo sapiens, UniProt Q13153); EGFR (Homo sapiens, UniProt P00533); WEE1 (Homo sapiens, UniProt P30291); PRKD3 (Homo sapiens, UniProt O94806); FLT3(D835H) (Homo sapiens, UniProt P36888, D835H); HCK (Homo sapiens, UniProt P08631); ULK2 (Homo sapiens, UniProt Q8IYT8); EGFR(L858R,T790M) (Homo sapiens, UniProt P00533, L858R/T790M); CASK (Homo sapiens, UniProt O14936); ROS1 (Homo sapiens, UniProt P08922); STK39 (Homo sapiens, UniProt Q9UEW8); BMX (Homo sapiens, UniProt P51813); EGFR(S752-I759del) (Homo sapiens, UniProt P00533, DEL752-759); MET(M1250T) (Homo sapiens, UniProt P08581, M1250T); ANKK1 (Homo sapiens, UniProt Q8NFD2); PIP5K1C (Homo sapiens, UniProt O60331).

Common to all, as to experiment: biochemical
What all share (design): KINOMEscan active-site competition binding, percent of control (100 = no competition)
Settings in all cases: competition binding, percent control

For experiment [1], the target named is T1, ABL1(F317L)-phosphorylated (Homo sapiens, UniProt P00519, F317L).
T1 construct: phosphorylated

Experiment [2] deals with T2, RPS6KA4(Kin.Dom.2-C-terminal) (Homo sapiens, UniProt O75676).
T2 construct: Kin.Dom.2-C-terminal

A further experiment concerns the target T3, AMPK-alpha2 (Homo sapiens, UniProt P54646).
T3 construct: gene PRKAA2

In a further experiment the target is T4, CDC2L5 (Homo sapiens, UniProt Q14004).
T4 construct: gene CDK13

Sequence of PIP5K1C (O60331 whole entry): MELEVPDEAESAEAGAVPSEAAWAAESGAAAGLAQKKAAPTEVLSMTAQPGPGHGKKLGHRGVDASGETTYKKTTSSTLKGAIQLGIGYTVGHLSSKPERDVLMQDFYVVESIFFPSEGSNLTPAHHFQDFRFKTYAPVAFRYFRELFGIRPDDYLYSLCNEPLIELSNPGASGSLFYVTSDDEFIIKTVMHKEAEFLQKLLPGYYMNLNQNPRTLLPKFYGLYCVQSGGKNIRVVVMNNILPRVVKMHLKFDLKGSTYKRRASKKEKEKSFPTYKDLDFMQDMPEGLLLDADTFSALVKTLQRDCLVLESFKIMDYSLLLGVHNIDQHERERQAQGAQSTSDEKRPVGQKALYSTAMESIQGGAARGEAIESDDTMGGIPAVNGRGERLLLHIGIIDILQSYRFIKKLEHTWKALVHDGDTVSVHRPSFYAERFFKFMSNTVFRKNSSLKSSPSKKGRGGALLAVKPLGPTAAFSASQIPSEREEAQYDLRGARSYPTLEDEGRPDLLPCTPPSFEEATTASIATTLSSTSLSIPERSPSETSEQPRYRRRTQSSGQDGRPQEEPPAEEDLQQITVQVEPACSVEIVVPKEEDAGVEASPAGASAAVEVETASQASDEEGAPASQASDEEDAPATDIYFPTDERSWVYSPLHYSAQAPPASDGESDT
Sequence of ULK2 (Q8IYT8 whole entry): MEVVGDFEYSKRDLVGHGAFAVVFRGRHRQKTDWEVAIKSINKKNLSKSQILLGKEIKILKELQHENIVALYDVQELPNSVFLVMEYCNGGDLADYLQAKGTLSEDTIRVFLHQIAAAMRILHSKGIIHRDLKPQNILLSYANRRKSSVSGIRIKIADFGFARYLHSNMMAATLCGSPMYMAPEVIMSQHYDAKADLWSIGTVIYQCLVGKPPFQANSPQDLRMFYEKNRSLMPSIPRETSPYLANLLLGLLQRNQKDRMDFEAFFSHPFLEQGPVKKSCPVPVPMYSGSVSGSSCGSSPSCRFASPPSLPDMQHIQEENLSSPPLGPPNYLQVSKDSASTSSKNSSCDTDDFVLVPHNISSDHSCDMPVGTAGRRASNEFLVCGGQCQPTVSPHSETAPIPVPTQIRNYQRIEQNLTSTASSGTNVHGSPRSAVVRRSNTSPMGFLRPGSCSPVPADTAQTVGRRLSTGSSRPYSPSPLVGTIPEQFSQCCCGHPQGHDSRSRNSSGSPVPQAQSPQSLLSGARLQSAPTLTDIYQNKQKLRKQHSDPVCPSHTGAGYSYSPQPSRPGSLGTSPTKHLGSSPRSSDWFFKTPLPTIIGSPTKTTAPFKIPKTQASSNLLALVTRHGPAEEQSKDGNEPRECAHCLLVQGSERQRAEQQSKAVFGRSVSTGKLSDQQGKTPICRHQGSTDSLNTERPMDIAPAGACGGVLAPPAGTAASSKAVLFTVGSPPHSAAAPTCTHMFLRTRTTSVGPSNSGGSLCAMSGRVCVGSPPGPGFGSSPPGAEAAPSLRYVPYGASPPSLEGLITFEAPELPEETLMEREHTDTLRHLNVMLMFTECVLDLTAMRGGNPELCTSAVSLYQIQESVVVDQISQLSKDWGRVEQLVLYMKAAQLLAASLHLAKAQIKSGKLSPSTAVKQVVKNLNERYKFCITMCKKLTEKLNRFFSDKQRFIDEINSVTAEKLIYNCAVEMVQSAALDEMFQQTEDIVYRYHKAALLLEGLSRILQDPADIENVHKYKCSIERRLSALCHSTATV
Sequence of CASK (O14936 whole entry): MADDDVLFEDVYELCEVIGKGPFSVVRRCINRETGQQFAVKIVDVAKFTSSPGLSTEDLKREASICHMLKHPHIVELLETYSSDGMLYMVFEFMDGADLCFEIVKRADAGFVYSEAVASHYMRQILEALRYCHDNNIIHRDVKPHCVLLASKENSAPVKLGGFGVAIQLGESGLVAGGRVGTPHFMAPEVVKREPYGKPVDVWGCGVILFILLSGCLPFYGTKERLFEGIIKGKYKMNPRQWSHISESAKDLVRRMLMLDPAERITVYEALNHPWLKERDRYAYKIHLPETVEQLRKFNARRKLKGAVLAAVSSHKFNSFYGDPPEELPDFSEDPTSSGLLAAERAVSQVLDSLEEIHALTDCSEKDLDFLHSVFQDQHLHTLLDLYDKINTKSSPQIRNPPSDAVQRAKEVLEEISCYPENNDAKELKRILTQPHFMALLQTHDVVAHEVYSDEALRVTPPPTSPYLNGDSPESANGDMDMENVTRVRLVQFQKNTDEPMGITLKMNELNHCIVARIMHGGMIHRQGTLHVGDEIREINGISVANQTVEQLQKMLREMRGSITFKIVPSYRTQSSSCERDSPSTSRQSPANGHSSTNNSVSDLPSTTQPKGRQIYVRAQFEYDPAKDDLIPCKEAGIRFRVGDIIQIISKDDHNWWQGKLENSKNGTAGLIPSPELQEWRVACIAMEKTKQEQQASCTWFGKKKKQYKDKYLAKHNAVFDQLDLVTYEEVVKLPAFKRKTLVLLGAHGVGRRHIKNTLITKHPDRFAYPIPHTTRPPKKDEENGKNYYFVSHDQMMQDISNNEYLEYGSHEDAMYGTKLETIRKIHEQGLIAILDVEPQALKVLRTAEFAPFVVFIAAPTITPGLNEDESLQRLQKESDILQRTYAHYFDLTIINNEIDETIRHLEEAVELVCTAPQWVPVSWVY
Sequence of WEE1 (P30291 whole entry): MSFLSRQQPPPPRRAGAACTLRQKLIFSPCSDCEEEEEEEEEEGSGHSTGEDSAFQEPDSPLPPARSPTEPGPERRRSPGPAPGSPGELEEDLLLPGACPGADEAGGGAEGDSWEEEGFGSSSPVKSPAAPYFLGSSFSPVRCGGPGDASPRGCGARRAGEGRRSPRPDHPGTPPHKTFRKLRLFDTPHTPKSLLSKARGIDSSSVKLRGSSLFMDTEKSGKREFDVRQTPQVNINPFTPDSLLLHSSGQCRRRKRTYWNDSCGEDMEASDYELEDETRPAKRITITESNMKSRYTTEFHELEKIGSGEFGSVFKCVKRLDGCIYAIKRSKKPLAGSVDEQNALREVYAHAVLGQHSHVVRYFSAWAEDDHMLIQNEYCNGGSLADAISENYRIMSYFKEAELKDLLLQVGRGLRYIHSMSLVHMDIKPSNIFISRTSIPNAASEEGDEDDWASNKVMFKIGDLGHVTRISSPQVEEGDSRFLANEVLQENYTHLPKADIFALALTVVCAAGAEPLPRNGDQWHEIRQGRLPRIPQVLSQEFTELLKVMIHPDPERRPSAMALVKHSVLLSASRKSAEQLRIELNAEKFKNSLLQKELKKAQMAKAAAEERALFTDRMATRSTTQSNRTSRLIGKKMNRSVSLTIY
Sequence of ANKK1 (Q8NFD2 whole entry): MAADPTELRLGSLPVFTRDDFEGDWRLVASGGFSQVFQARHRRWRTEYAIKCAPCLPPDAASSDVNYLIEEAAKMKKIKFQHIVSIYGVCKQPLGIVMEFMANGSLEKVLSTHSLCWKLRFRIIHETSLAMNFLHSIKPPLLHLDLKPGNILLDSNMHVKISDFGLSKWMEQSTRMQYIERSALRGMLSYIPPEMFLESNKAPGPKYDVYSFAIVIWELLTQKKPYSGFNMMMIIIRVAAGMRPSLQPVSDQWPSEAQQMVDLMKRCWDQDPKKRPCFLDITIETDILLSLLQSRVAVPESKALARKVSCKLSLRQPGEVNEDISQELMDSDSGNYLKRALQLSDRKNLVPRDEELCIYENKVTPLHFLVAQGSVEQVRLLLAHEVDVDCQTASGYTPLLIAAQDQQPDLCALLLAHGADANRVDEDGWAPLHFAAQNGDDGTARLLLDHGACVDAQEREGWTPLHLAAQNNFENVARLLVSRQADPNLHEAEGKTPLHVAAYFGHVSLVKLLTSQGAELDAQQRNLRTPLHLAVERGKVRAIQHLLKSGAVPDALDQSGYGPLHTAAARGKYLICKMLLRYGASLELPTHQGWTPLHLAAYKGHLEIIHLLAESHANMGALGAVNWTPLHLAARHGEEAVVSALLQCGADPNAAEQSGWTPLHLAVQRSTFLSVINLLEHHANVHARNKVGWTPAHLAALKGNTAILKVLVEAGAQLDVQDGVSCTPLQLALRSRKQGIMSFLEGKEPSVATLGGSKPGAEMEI
T3 sequence (P54646 whole entry): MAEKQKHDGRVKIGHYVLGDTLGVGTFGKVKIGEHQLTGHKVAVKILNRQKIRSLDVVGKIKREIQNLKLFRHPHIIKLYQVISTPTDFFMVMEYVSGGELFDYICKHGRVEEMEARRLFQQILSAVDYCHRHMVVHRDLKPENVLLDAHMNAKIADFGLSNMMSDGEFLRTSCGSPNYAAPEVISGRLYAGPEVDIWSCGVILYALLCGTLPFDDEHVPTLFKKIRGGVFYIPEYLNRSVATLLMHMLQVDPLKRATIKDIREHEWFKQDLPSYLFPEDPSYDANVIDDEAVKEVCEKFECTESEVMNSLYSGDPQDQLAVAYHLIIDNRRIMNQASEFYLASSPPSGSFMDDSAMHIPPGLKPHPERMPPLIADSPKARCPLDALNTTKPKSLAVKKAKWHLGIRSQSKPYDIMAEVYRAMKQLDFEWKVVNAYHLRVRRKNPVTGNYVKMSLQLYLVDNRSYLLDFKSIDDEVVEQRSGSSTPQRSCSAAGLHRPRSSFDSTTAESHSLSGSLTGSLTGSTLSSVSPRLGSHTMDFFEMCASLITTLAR
Sequence of CSK (P41240 whole entry): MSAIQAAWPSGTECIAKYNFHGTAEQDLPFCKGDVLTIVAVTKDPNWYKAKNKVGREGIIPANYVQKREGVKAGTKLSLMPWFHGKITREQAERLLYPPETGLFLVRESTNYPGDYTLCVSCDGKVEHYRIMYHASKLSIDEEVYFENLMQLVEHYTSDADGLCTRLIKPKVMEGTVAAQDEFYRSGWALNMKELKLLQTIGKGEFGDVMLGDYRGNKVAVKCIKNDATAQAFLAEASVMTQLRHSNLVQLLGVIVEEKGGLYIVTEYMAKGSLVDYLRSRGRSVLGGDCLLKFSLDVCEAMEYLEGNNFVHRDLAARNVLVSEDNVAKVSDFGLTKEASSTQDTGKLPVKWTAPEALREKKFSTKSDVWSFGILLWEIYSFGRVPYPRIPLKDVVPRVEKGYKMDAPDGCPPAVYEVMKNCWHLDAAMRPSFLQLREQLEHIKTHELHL

As to `COc1ccc(-c2cnccc2-c2cnc(NC(=O)C(C)C)s2)c(C(F)(F)F)c1` [CRT0105446, N-{5-[3-(4-Methoxy-2-trifluoromethyl-phenyl)-pyridin-4-yl]-hiazol-2-yl}-isobutyramide], the remaining binding at 10 µM at CSK was 91%; on FGFR3, 96%; at HUNK, 89%; on PAK1 it was 57%; at EGFR it was 100%; on WEE1, 87%. In addition, the remaining binding at 10 µM amounted to 98% at PRKD3; 15% at FLT3(D835H); 100% on HCK; 89% in experiment [1]; 100% at ULK2; 91% at EGFR(L858R,T790M). Besides, the remaining binding at 10 µM is 1.2% at CASK; 57% in experiment [2]; 100% at ROS1; 100% at STK39; 3.9% at AMPK-alpha2; 14% on CDC2L5. For the same compound, the remaining binding at 10 µM on BMX came out at 100%; on EGFR(S752-I759del), 84%; at MET(M1250T), 93%; at ANKK1, 99%; at PIP5K1C it was 60%.
In the case of `Cc1ccc(-c2cnccc2-c2cnc(Nc3ccc(O)cc3)s2)c(Cl)c1` [CRT0105950, 4-{5-[3-(2-Chloro-4-methyl-phenyl)-pyridin-4-yl]-thiazol-2-ylamino}-phenol], the remaining binding at 10 µM on CSK came out at 71%; on FGFR3 it was 4.8%; on HUNK it was 49%; on PAK1, 97%; on EGFR, 53%; on WEE1 it was 48%. The remaining binding at 10 µM at PRKD3 came to 11%; on FLT3(D835H), 0.95%; at HCK it was 94%; in experiment [1] it was 67%; on ULK2, 20%; on EGFR(L858R,T790M) it was 89%. In addition, the remaining binding at 10 µM at CASK turned out to be 13%; in experiment [2], 72%; on ROS1, 100%; on STK39 it was 100%; on AMPK-alpha2, 2%; on CDC2L5, 26%. Also, the remaining binding at 10 µM on BMX was determined as 81%; on EGFR(S752-I759del), 69%; at MET(M1250T), 19%; on ANKK1, 69%; at PIP5K1C, 100%.
